Target: T1, RytRedAm (Rhodococcus erythropolis, UniProt Z9GXG8TLZ1)
T1 construct: recombinant, N-terminal His-tag in pET-28a(+), E. coli BL21(DE3); Ni-NTA purified; homodimer; printed residues R35, I69, T90, D166, Y235
T1 sequence (Z9GXG8TLZ1 1-291): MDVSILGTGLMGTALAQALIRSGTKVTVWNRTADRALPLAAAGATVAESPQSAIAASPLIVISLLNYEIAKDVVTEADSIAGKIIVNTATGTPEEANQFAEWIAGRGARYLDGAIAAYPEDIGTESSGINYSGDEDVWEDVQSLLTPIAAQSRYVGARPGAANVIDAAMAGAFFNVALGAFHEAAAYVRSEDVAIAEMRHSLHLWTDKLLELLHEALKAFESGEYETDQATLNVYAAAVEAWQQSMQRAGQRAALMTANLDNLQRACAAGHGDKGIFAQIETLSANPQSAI
Experiment: X-ray crystallography
Type: binding
Details: cocrystallized with NADP+, nicotinamide ring and ribose density absent; cofactor site; pH 7.0

In the case of `Nc1ncnc2c1ncn2[C@@H]1O[C@H](COP(=O)(O)OP(=O)(O)O)[C@@H](O)[C@H]1OP(=O)(O)O` [ADP-2RP], the X-ray crystallography is reported as “crystals obtained with the latter gave an ADP-2′-ribose phosphate (ADP-2RP) complex”.

Reference: paper PMC11705230, “Discovery and Synthetic Applications of a NAD(P)H-Dependent Reductive Aminase from Rhodococcus erythropolis” (ACS Catalysis, 2024)
